Experimental data from US11492348B2, “Tri-substituted aryl and heteroaryl derivatives as modulators of PI3-kinase and autophagy pathways” (Neuropore Therapies, Inc., priority 2018, dated 2022).

How the values were obtained:
PI3Kα = PI3Kα (Homo sapiens (Human), UniProt P42336); test: Inhibition of PI3Kα (ADP-Glo kinase activity assay, ATP to ADP conversion); assay type: biochemical; conditions: 25 μM PIP2:PS, 60 μM ATP, 30 min reaction, luminescence
In short: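 Recombinant active PI3Kα (1.1 nM) in HEPES pH 7.5 buffer with 6 mM MgCl2 and 8 mM DTT was preincubated with compound for 0 or 3 h. The reaction ran for 30 min with 25 µM PIP2:PS and 60 µM ATP, and ADP formation was read by ADP-Glo luminescence. IC50 came from a 12-point, 1:3 series fitted with a 4-parameter model, bottom fixed to reference inhibitor controls and top floating.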

[1] = test system: (Ser-473) pAKT in B103 (Rat Neuroblastoma) cells; test: pAKT protocol: loss of (Ser-473) pAKT by AlphaScreen in insulin-stimulated B103 cells; assay type: cell-based; conditions: (Ser-473) pAKT/total AKT IC50, 2-hour pretreatment, 2.5 μg/mL insulin 20 minutes
In short: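 Rat neuroblastoma B103 cells, serum-starved 6 h, were pretreated 2 h with inhibitors (6-point 1:3 series, 0.5% DMSO) before insulin stimulation. Lysate Ser-473 pAKT and total AKT measured by AlphaScreen; pAKT/total AKT ratio fitted to 4-parameter curve, bottom constrained to reference control, top anchored to DMSO.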

mTor kinase = mTor kinase (Homo sapiens (Human), UniProt P42345); test: mTor assay (33P-ATP filter-binding kinase assay); assay type: biochemical; conditions: 2 hours at room temperature

Sequence of PI3Kα (P42336 whole entry): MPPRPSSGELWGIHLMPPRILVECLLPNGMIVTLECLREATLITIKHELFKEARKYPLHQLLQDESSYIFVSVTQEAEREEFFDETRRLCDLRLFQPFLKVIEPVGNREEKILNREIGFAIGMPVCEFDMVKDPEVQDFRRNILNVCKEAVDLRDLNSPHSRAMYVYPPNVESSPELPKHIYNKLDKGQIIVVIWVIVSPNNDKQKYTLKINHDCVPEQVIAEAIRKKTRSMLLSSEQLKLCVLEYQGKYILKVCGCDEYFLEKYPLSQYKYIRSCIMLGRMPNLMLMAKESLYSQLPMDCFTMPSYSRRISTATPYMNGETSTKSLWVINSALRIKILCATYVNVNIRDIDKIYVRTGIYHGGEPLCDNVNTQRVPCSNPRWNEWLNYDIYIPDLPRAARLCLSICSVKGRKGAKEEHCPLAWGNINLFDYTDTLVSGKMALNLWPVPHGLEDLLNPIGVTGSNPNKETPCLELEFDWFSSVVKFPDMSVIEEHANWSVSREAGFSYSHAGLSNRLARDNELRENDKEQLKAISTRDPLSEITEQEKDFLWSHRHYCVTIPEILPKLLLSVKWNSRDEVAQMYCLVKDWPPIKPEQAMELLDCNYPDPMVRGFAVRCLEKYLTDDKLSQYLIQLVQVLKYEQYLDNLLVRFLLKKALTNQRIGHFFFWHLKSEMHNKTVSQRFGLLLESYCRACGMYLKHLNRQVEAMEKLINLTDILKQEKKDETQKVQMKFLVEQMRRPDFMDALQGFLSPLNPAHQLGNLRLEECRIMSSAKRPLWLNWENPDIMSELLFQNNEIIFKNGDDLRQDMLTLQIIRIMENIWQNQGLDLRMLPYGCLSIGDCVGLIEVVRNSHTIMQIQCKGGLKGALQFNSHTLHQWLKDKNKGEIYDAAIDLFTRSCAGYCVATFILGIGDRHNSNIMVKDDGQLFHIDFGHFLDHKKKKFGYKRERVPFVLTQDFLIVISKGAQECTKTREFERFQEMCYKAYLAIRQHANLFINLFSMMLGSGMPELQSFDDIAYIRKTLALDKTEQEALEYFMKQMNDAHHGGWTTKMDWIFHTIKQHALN
Sequence of PI3Kα (P27986 whole entry partner): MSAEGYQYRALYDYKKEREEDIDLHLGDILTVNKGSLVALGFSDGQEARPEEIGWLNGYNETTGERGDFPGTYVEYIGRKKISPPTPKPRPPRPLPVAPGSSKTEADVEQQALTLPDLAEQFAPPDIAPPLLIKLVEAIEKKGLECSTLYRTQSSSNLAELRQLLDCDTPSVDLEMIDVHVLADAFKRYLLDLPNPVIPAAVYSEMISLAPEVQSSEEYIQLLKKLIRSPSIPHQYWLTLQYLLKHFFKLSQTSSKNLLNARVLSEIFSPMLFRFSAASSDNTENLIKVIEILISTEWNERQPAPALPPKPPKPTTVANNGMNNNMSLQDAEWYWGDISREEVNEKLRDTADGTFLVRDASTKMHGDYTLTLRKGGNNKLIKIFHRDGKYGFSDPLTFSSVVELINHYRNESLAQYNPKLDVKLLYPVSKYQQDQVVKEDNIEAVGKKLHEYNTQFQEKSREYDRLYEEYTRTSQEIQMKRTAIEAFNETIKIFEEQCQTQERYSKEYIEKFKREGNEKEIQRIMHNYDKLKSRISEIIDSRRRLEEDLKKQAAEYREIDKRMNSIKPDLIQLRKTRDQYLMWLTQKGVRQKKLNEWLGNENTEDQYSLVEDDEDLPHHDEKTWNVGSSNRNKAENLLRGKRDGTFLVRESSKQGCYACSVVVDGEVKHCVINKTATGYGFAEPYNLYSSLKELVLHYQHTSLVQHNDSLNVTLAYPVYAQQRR

Nc1ncc(-c2cc(N3CCOCC3)cc(S(=O)(=O)c3cccc4ccoc34)c2)cn1 [Compound 110, 5-(3-(benzofuran-7-ylsulfonyl)-5-morpholinophenyl)pyrimidin-2-amine]
PI3Ka IC50 (PI3Kα): 400 nM
IC50 [1]: 8700 nM
IC50 (mTor kinase): 9900 nM

Nc1ncc(-c2cc(N3CCOCC3)cc(S(=O)(=O)c3cccc4c3OCC4)c2)cn1 [Compound 111, 5-(3-((2,3-dihydrobenzofuran-7-yl)sulfonyl)-5-morpholinophenyl)pyrimidin-2-amine]
PI3Ka IC50 (PI3Kα): 380 nM
IC50 [1]: 14500 nM
IC50 (mTor kinase): 5400 nM

Nc1ncc(-c2cc(S(=O)(=O)c3ccccc3)cc(N3CCOCC3)n2)cn1 [Compound 115, 5-(6-morpholino-4-(phenylsulfonyl)pyridin-2-yl)pyrimidin-2-amine]
PI3Ka IC50 (PI3Kα): 66 nM
IC50 [1]: 570 nM
IC50 (mTor kinase): 63 nM

Nc1ncc(-c2cc(N3CCOCC3)cc(S(=O)(=O)C3COc4ccccc43)c2)cn1 (stereo not drawn) [Compound 119, 5-(3-((2,3-dihydrobenzofuran-3-yl)sulfonyl)-5-morpholinophenyl)pyrimidin-2-amine]
PI3Ka IC50 (PI3Kα): 110 nM
IC50 [1]: 4000 nM
IC50 (mTor kinase): 4700 nM

Nc1ncc(-c2cc(Oc3ccccc3)cc(N3CCOCC3)n2)cn1 [Compound 120, 5-(6-morpholino-4-phenoxypyridin-2-yl)pyrimidin-2-amine]
PI3Ka IC50 (PI3Kα): 91 nM
IC50 [1]: 640 nM
IC50 (mTor kinase): 480 nM

Nc1ncc(-c2cc(C(=O)c3ccccc3)cc(N3CCOCC3)n2)cn1 [Compound 122, (2-(2-aminopyrimidin-5-yl)-6-morpholinopyridin-4-yl)(phenyl)methanone]
PI3Ka IC50 (PI3Kα): 37 nM
IC50 [1]: 480 nM
IC50 (mTor kinase): 510 nM

Nc1ncc(-c2cc(C(F)(F)c3ccccc3)cc(N3CCOCC3)n2)cn1 [Compound 123, 5-(4-(Difluoro(phenyl)methyl)-6-morpholinopyridin-2-yl)pyrimidin-2-amine]
PI3Ka IC50 (PI3Kα): 46 nM
IC50 [1]: 460 nM
IC50 (mTor kinase): 560 nM

CC(c1ccccc1)c1cc(-c2cnc(N)nc2)nc(N2CCOCC2)c1 (stereo not drawn) [Compound 125, 5-(6-morpholino-4-(1-phenylethyl)pyridin-2-yl)pyrimidin-2-amine]
PI3Ka IC50 (PI3Kα): 210 nM
IC50 [1]: 810 nM
IC50 (mTor kinase): 270 nM

Nc1ncc(-c2cc(C3(c4ccccc4)CC3)cc(N3CCOCC3)n2)cn1 [Compound 127, 5-(6-morpholino-4-(1-phenylcyclopropyl)pyridin-2-yl)pyrimidin-2-amine]
PI3Ka IC50 (PI3Kα): 56 nM
IC50 [1]: 380 nM
IC50 (mTor kinase): 130 nM

Nc1ncc(-c2cc(OC3CN(C(=O)C4CC4)C3)cc(N3CCOCC3)n2)cn1 [Compound 129, (3-((2-(2-aminopyrimidin-5-yl)-6-morpholinopyridin-4-yl)oxy)azetidin-1-yl)(cyclopropyl)methanone]
PI3Ka IC50 (PI3Kα): 34 nM
IC50 [1]: 3460 nM
IC50 (mTor kinase): 2950 nM

Nc1ncc(-c2cc(OC3CCOC3)cc(N3CCOCC3)n2)cn1 (stereo not drawn) [Compound 130, 5-(6-morpholino-4-((tetrahydrofuran-3-yl)oxy)pyridin-2-yl)pyrimidin-2-amine]
PI3Ka IC50 (PI3Kα): 23 nM
IC50 [1]: 750 nM
IC50 (mTor kinase): 1750 nM

Nc1ncc(-c2cc(C(=O)C3CCOCC3)cc(N3CCOCC3)n2)cn1 [Compound 131, (2-(2-aminopyrimidin-5-yl)-6-morpholinopyridin-4-yl)(tetrahydro-2H-pyran-4-yl)methanone]
PI3Ka IC50 (PI3Kα): 23 nM
IC50 [1]: 560 nM
IC50 (mTor kinase): 590 nM

Nc1ncc(-c2cc(C(F)(F)C3CCOCC3)cc(N3CCOCC3)n2)cn1 [Compound 133, 5-(4-(difluoro(tetrahydro-2H-pyran-4-yl)methyl)-6-morpholinopyridin-2-yl)pyrimidin-2-amine]
PI3Ka IC50 (PI3Kα): 12 nM
IC50 [1]: 400 nM
IC50 (mTor kinase): 440 nM

Nc1ncc(-c2cc(Oc3ccccc3Cl)cc(N3CCOCC3)n2)cn1 [Compound 134, 5-(4-(2-chlorophenoxy)-6-morpholinopyridin-2-yl)pyrimidin-2-amine]
PI3Ka IC50 (PI3Kα): 70 nM
IC50 [1]: 380 nM
IC50 (mTor kinase): 450 nM

COc1ccccc1Oc1cc(-c2cnc(N)nc2)nc(N2CCOCC2)c1 [Compound 135, 5-(4-(2-methoxyphenoxy)-6-morpholinopyridin-2-yl)pyrimidin-2-amine]
PI3Ka IC50 (PI3Kα): 79 nM
IC50 [1]: 1620 nM
IC50 (mTor kinase): 700 nM

Nc1ncc(-c2cc(Oc3ccccc3OC(F)(F)F)cc(N3CCOCC3)n2)cn1 [Compound 136, 5-(6-morpholino-4-(2-(trifluoromethoxy)phenoxy)pyridin-2-yl)pyrimidin-2-amine]
PI3Ka IC50 (PI3Kα): 370 nM
IC50 [1]: 1510 nM
IC50 (mTor kinase): 2060 nM

Cc1ccccc1Oc1cc(-c2cnc(N)nc2)nc(N2CCOCC2)c1 [Compound 137, 5-(6-morpholino-4-(o-tolyloxy)pyridin-2-yl)pyrimidin-2-amine]
PI3Ka IC50 (PI3Kα): 75 nM
IC50 [1]: 450 nM
IC50 (mTor kinase): 370 nM

Nc1ncc(-c2cc(C(=O)c3ccccc3Cl)cc(N3CCOCC3)n2)cn1 [Compound 138, (2-(2-aminopyrimidin-5-yl)-6-morpholinopyridin-4-yl)(2-chlorophenyl)methanone]
PI3Ka IC50 (PI3Kα): 14 nM
IC50 [1]: 190 nM
IC50 (mTor kinase): 1100 nM
